Assay results reported in US8969565B2, “Imidazo[1,2-b]pyridazine-based compounds, compositions comprising them, and methods of their use” (Lexicon Pharmaceuticals, Inc., priority 2012, dated 2015).
Counter-ions that a name gives are not always drawn.

Tests used:
[1] = target: T1, AAK1 (Homo sapiens, UniProt Q2M2I8); assay: P81 filter plate assay; type: biochemical; conditions: full-length human AAK1, Mu2 substrate
T1 construct: HA; expressed in transfected cells; host or cells: HEK293F

[2] = target: T1, AAK1; assay: HEK281 cell-based assay (phospho-mu2 Western blot in transfected HEK293F cells); conditions: 3 hours incubation, read-out: CBA IC50
In short: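 HEK293F cells co-transfected with full-length human AAK1/HA and Flag/AP2M1 were treated next day with 5 compound concentrations (3-fold dilutions) in DMEM+0.5% FBS for 3 hours at 37° C. Lysates were Western blotted for phospho-mu2, with total mu2 detected by anti-Flag.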

T1 sequence (Q2M2I8 1-863 isoform Q2M2I8-2): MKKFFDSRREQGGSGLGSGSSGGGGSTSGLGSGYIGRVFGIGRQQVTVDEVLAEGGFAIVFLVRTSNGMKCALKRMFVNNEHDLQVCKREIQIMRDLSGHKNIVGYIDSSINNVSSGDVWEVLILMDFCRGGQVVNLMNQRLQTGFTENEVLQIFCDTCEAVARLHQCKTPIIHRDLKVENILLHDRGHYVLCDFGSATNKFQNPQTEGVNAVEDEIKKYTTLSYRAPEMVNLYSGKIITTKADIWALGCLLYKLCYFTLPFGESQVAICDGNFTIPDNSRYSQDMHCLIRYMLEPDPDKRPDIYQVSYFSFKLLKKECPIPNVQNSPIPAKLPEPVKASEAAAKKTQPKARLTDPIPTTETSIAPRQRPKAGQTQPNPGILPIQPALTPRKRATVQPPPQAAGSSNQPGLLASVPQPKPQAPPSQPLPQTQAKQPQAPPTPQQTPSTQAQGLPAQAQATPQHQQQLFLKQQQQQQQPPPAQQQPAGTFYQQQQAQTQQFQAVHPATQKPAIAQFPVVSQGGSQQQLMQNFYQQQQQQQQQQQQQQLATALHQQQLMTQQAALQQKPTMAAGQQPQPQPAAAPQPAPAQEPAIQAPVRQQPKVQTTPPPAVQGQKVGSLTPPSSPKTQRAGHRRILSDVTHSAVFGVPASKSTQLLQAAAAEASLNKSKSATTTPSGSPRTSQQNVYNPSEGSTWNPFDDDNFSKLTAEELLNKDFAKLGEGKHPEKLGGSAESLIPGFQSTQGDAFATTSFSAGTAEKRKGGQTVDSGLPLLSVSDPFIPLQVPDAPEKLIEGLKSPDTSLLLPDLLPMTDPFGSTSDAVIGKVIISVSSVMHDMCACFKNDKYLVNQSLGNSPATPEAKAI

| melting point | IC50 [1] [µM] | IC50 [2] [µM] | Compound |
| --- | --- | --- | --- |
| 217 to 218 °C (dec.) |  |  | CC(C)NC(=O)N1CCN(c2ccc3ncc(-c4ccccc4)n3n2)CC1 (as salt: hydrochloride) [N-Isopropyl-4-(3-phenylimidazo[1,2-b]pyridazin-6-yl)piperazine-1-carboxamide] |
| 179 to 181 °C (dec.) |  |  | COc1ncccc1-c1cnc2ccc(N3CCN(C(=O)OC(C)C)CC3)nn12 (as salt: hydrochloride) [Example 5.6.151, 4-[3-(2-Methoxy-pyridin-3-yl)-imidazo[1,2-b]pyridazin-6-yl]-piperazine-1-carboxylic acid isopropyl ester] |
| 210 to 211 °C (dec.) |  |  | CC(C)(C)NC(=O)N1CCN(c2ccc3ncc(-c4ccccc4)n3n2)CC1 (as salt: hydrochloride) [N-(tert-Butyl)-4-(3-phenylimidazo[1,2-b]pyridazin-6-yl)piperazine-1-carboxamide] |
| 173 to 174 °C |  |  | COc1ccccc1-c1cnc2ccc(N3C[C@H]4C[C@@H]3CN4C(=O)OC(C)C)nn12 (stereo in doubt) (as salt: hydrochloride) [Example 5.6.154, Isopropyl 5-(3-(2-methoxyphenyl)imidazo[1,2-b]pyridazin-6-yl)-2,5-diazabicyclo[2.2.1]heptane-2-carboxylate] |
|  | ≤ 0.01 | ≤ 0.1 | COc1cccc(-c2cnc3ccc(N4CCN(C(=O)OC(C)C)CC4)nn23)c1F [isopropyl 4-(3-(2-fluoro-3-methoxyphenyl)imidazo[1,2-b]pyridazin-6-yl)piperazine-1-carboxylate] |
|  | ≤ 0.01 | ≤ 0.01 | COc1ncccc1-c1cnc2ccc(N3CC[C@H](N(C)C(=O)OC(C)C)C3)nn12 [{(S)-1-[3-(2-Methoxy-pyridin-3-yl)-imidazo[1,2-b]pyridazin-6-yl]-pyrrolidin-3-yl}-methyl-carbamic acid isopropyl ester] |
|  | ≤ 0.01 | ≤ 1 | CC(C)SC(=O)N1CCN(c2ccc3ncc(-c4ccccc4)n3n2)CC1 [S-Isopropyl 4-(3-phenylimidazo[1,2-b]pyridazin-6-yl)piperazine-1-carbothioate] |
|  | ≤ 0.01 | ≤ 0.1 | CC(C)OC(=O)N1CCN(c2ccc3ncc(-c4ccccc4F)n3n2)CC1 [isopropyl 4-(3-(2-fluorophenyl)imidazo[1,2-b]pyridazin-6-yl)piperazine-1-carboxylate] |

Second part, the compound before the results:

| Compound | melting point | IC50 [1] [µM] | IC50 [2] [µM] |
| --- | --- | --- | --- |
| CC(C)OC(=O)N1CCN(c2ccc3ncc(Br)n3n2)C(C)C1 (racemic) [Example 5.6.146, Isopropyl 4-(3-bromoimidazo[1,2-b]pyridazin-6-yl)-3-methylpiperazine-1-carboxylate] | 52 to 54 °C |  |  |
| CC(C)OC(=O)N1CCN(c2ccc3ncc(-c4ccccc4)n3n2)CC1 (as salt: hydrochloride) [4-(3-Phenyl-imidazo[1,2-b]pyridazin-6-yl)-piperazine-1-carboxylic acid isopropyl ester] | 232 to 233 °C (dec.) |  |  |
| CN(CCNc1ccc2ncc(-c3ccc(C(N)=O)cc3)n2n1)C(=O)NC(C)(C)C | 154 to 155 °C |  |  |
| CC(C)OC(=O)N1CCN(c2ccc3ncc(-c4ccccc4OC(C)C)n3n2)CC1 (as salt: hydrochloride) [Example 5.6.145, 4-[3-(2-Isopropoxy-phenyl)-imidazo[1,2-b]pyridazin-6-yl]-piperazine-1-carboxylic acid isopropyl ester] | 216 to 217 °C (dec.) |  |  |
| CC(C)OC(=O)N1CCN(c2ccc3ncc(-c4ccncc4)n3n2)CC1 (as salt: hydrochloride) [Example 5.6.108, 4-(3-Pyridin-4-yl-imidazo[1,2-b]pyridazin-6-yl)-piperazine-1-carboxylic acid isopropyl ester] | 195 to 196 °C (dec.) |  |  |
| CC(C)(C)C(=O)N1CCN(c2ccc3ncc(-c4ccccc4)n3n2)CC1 (as salt: hydrochloride) [Example 5.6.125, 2,2-Dimethyl-1-[4-(3-phenyl-imidazo[1,2-b]pyridazin-6-yl)-piperazin-1-yl]-propan-1-one] | 277 to 278 °C (dec.) |  |  |
| COc1cnccc1-c1cnc2ccc(N3CCCN(C(=O)OC(C)(C)C)CC3)nn12 [Example 5.6.121, 4-[3-(3-Methoxy-pyridin-4-yl)-imidazo[1,2-b]pyridazin-6-yl]-[1,4]diazepane-1-carboxylic acid tert-butyl ester] | 115 to 116 °C |  |  |
| COc1cnccc1-c1cnc2ccc(N3CCN(C(=O)CC(C)(C)C)CC3)nn12 (as salt: hydrochloride) [Example 5.6.114, 1-(4-(3-(3-Methoxypyridin-4-yl)imidazo[1,2-b]pyridazin-6-yl)piperazin-1-yl)-3,3-dimethylbutan-1-one] | 211 to 212 °C (dec.) |  |  |
| FC(F)(F)CCCNc1ccc2ncc(-c3cccc4c3OCC4)n2n1 (as salt: hydrochloride) [Example 5.6.106, [3-(2,3-Dihydro-benzofuran-7-yl)-imidazo[1,2-b]pyridazin-6-yl]-(4,4,4-trifluoro-butyl)-amine] | 299 to 300 °C |  |  |
| CC(C)(C)CCN1C(=O)CC[C@H]1CNc1ccc2ncc(-c3ccccc3)n2n1 [(S)-1-(3,3-dimethylbutyl)-5-(((3-phenylimidazo[1,2-b]pyridazin-6-yl)amino)methyl)pyrrolidin-2-one] |  | ≤ 0.01 | ≤ 1 |
| Cc1cnc2ccc(NC[C@@H]3CCCN3C(=O)OC(C)(C)C)nn12 [(S)-tert-butyl 2-(((3-methylimidazo[1,2-b]pyridazin-6-yl)amino)methyl)pyrrolidine-1-carboxylate] |  | ≤ 0.01 | ≤ 0.1 |
| CC(C)(C)COC(=O)N1CCC[C@H]1CNc1ccc2ncc(-c3ccc(CN)cc3)n2n1 [(S)-neopentyl 2-(((3-(4-(aminomethyl)phenyl)imidazo[1,2-b]pyridazin-6-yl)amino)methyl)pyrrolidine-1-carboxylate] |  | ≤ 0.01 | ≤ 0.01 |
| COc1ccc(-c2cnc3ccc(N4CC[C@H](N(C)C(=O)OC(C)C)C4)nn23)c(OC)n1 [(S)-isopropyl (1-(3-(2,6-dimethoxypyridin-3-yl)imidazo[1,2-b]pyridazin-6-yl)pyrrolidin-3-yl)(methyl)carbamate] |  | ≤ 0.01 | ≤ 0.1 |
| CC(C)CC(=O)N1CCC[C@H]1CNc1ccc2ncc(-c3ccc(F)cc3)n2n1 [(S)-1-(2-(((3-(4-fluorophenyl)imidazo[1,2-b]pyridazin-6-yl)amino)methyl)pyrrolidin-1-yl)-3-methylbutan-1-one] |  | ≤ 0.01 | ≤ 0.1 |
| COc1cnccc1-c1cnc2ccc(N3CCN(C(=O)N4CCCC4)CC3)nn12 [(4-(3-(3-methoxypyridin-4-yl)imidazo[1,2-b]pyridazin-6-yl)piperazin-1-yl)(pyrrolidin-1-yl)methanone] |  | ≤ 0.01 | ≤ 0.1 |
| CC(C)(C)CNC(=O)N1CCC[C@H]1CNc1ccc2ncc(-c3ccccc3)n2n1 [(S)-N-neopentyl-2-(((3-phenylimidazo[1,2-b]pyridazin-6-yl)amino)methyl)pyrrolidine-1-carboxamide] |  | ≤ 0.01 | ≤ 0.1 |
| COc1nc(C)ccc1-c1cnc2ccc(N3CC[C@H](N(C)C(=O)OC(C)C)C3)nn12 [(S)-isopropyl(1-(3-(2-methoxy-6-methylpyridin-3-yl)imidazo[1,2-b]pyridazin-6-yl)pyrrolidin-3-yl)(methyl)carbamate] |  | ≤ 0.01 | ≤ 0.01 |
